Article PMC12090182, “Repurposing of the RIPK1-Selective Benzo[1,4]oxazepin-4-one Scaffold for the Development of a Type III LIMK1/2 Inhibitor” (ACS Chemical Biology, 2025)

What was measured:
Assay in all cases: biochemical
Type in all cases: binding
[1] = target: 468 kinases including some pathogenic mutants (Homo sapiens, UniProt P51955); details: NEK2 (Entrez NEK2), 1000 nM; read-out: Percent Control
[2] = target: 468 kinases including some pathogenic mutants (Homo sapiens, UniProt O00444); details: PLK4 (Entrez PLK4), 100 nM; read-out: Percent Control
[3] = target: 468 kinases including some pathogenic mutants (Homo sapiens, UniProt P42345); details: MTOR (Entrez MTOR), 1000 nM; read-out: Percent Control
[4] = target: 468 kinases including some pathogenic mutants (Homo sapiens, UniProt Q96SB4); details: SRPK1 (Entrez SRPK1), 100 nM; read-out: Percent Control
[5] = target: 468 kinases including some pathogenic mutants (Homo sapiens, UniProt Q96RR4); details: CAMKK2 (Entrez CAMKK2), 100 nM; read-out: Percent Control
[6] = target: 468 kinases including some pathogenic mutants (Homo sapiens, UniProt Q16566); details: CAMK4 (Entrez CAMK4), 100 nM; read-out: Percent Control
[7] = target: 468 kinases including some pathogenic mutants (Homo sapiens, UniProt P19784); details: CSNK2A2 (Entrez CSNK2A2), 100 nM; read-out: Percent Control
[8] = target: 468 kinases including some pathogenic mutants (Homo sapiens, UniProt Q02750); details: MEK1 (Entrez MAP2K1), 1000 nM; read-out: Percent Control
[9] = target: 468 kinases including some pathogenic mutants (Homo sapiens, UniProt Q13237); details: PRKG2 (Entrez PRKG2), 100 nM; read-out: Percent Control
[10] = target: 468 kinases including some pathogenic mutants (Homo sapiens, UniProt O00141); details: SGK (Entrez SGK1), 1000 nM; read-out: Percent Control
[11] = target: 468 kinases including some pathogenic mutants (Homo sapiens, UniProt P10721, A829P); details: read-out: Percent Control
[12] = target: 468 kinases including some pathogenic mutants (Homo sapiens, UniProt Q96PN8); details: TSSK3 (Entrez TSSK3), 1000 nM; read-out: Percent Control
[13] = target: 468 kinases including some pathogenic mutants (Homo sapiens, UniProt P36888, N841I); details: read-out: Percent Control
[14] = target: 468 kinases including some pathogenic mutants (Homo sapiens, UniProt P42336, I800L); details: read-out: Percent Control
[15] = target: 468 kinases including some pathogenic mutants (Homo sapiens, UniProt Q13523); details: PRP4 (Entrez PRPF4B), 1000 nM; read-out: Percent Control
[16] = target: 468 kinases including some pathogenic mutants (Homo sapiens, UniProt P42336, E545K); details: read-out: Percent Control
[17] = target: 468 kinases including some pathogenic mutants (Homo sapiens, UniProt O43353); details: RIPK2 (Entrez RIPK2), 100 nM; read-out: Percent Control
[18] = target: 468 kinases including some pathogenic mutants (Homo sapiens, UniProt O43683); details: BUB1 (Entrez BUB1), 100 nM; read-out: Percent Control
[19] = target: 468 kinases including some pathogenic mutants (Homo sapiens, UniProt Q96L34); details: MARK4 (Entrez MARK4), 1000 nM; read-out: Percent Control
[20] = target: 468 kinases including some pathogenic mutants (Homo sapiens, UniProt Q9UF33); details: EPHA6 (Entrez EPHA6), 100 nM; read-out: Percent Control
[21] = target: 468 kinases including some pathogenic mutants (Homo sapiens, UniProt Q9UK32); details: read-out: Percent Control
[22] = target: 468 kinases including some pathogenic mutants (Homo sapiens, UniProt P48736); details: PIK3CG (Entrez PIK3CG), 100 nM; read-out: Percent Control
[23] = target: 468 kinases including some pathogenic mutants (Homo sapiens, UniProt P53355); details: DAPK1 (Entrez DAPK1), 100 nM; read-out: Percent Control
[24] = target: 468 kinases including some pathogenic mutants (Homo sapiens, UniProt Q9NWZ3); details: IRAK4 (Entrez IRAK4), 1000 nM; read-out: Percent Control
[25] = target: 468 kinases including some pathogenic mutants (Homo sapiens, UniProt P29376); details: LTK (Entrez LTK), 100 nM; read-out: Percent Control
[26] = target: 468 kinases including some pathogenic mutants (Homo sapiens, UniProt P32298); details: GRK4 (Entrez GRK4), 100 nM; read-out: Percent Control
[27] = target: 468 kinases including some pathogenic mutants (Homo sapiens, UniProt Q8NG66); details: NEK11 (Entrez NEK11), 100 nM; read-out: Percent Control
[28] = target: 468 kinases including some pathogenic mutants (Homo sapiens, UniProt Q9BUB5); details: MKNK1 (Entrez MKNK1), 100 nM; read-out: Percent Control
[29] = target: 468 kinases including some pathogenic mutants (Homo sapiens, UniProt Q9HCP0); details: CSNK1G1 (Entrez CSNK1G1), 100 nM; read-out: Percent Control
Sequence of 468 kinases including some pathogenic mutants (Homo sapiens, UniProt Q9HCP0) (Q9HCP0 whole entry, change not shown): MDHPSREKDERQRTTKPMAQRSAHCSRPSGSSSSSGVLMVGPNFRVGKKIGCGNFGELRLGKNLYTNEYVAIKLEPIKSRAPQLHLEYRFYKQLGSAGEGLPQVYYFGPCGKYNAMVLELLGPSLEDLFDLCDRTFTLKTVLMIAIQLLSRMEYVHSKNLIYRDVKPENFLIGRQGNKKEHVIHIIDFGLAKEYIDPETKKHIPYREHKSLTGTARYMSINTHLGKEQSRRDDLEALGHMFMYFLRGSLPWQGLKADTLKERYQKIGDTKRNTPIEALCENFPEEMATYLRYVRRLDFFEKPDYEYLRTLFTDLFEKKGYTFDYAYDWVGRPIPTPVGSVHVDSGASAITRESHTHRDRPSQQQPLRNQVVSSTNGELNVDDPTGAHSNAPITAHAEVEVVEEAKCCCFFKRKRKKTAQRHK

Sequence of 468 kinases including some pathogenic mutants (Homo sapiens, UniProt Q9UK32) (Q9UK32 whole entry, change not shown): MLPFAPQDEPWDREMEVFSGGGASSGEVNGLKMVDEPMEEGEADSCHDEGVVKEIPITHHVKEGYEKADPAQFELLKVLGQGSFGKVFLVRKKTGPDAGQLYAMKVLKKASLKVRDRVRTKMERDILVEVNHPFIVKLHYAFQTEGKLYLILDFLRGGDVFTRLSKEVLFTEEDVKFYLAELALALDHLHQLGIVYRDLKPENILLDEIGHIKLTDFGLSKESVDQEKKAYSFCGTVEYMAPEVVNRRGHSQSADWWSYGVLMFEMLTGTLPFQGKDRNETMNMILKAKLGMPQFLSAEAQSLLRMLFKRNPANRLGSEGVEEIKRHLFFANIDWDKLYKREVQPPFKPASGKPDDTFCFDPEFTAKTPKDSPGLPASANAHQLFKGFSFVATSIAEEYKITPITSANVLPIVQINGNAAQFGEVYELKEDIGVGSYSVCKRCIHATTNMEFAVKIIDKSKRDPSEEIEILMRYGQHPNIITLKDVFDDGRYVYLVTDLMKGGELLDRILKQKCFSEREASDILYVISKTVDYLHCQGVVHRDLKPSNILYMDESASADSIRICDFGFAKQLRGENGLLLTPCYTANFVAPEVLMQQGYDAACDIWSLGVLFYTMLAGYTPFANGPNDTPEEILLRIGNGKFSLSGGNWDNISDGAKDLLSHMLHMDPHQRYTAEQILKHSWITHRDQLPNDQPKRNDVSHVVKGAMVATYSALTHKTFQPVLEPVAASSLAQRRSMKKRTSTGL
Sequence of 468 kinases including some pathogenic mutants (Homo sapiens, UniProt Q16566) (Q16566 whole entry, change not shown): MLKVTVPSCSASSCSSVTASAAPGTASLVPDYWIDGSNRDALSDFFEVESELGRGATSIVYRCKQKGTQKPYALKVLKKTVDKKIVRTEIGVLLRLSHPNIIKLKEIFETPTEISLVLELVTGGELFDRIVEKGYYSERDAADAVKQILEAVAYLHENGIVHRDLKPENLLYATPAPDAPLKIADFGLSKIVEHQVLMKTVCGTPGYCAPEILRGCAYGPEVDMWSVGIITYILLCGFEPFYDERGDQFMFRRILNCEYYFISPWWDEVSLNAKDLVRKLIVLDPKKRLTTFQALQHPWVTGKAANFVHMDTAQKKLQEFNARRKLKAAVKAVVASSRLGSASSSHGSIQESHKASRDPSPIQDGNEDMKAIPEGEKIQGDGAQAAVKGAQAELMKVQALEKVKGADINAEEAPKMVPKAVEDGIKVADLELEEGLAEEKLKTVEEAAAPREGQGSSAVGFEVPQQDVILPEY
Sequence of 468 kinases including some pathogenic mutants (Homo sapiens, UniProt P32298) (P32298 whole entry, change not shown): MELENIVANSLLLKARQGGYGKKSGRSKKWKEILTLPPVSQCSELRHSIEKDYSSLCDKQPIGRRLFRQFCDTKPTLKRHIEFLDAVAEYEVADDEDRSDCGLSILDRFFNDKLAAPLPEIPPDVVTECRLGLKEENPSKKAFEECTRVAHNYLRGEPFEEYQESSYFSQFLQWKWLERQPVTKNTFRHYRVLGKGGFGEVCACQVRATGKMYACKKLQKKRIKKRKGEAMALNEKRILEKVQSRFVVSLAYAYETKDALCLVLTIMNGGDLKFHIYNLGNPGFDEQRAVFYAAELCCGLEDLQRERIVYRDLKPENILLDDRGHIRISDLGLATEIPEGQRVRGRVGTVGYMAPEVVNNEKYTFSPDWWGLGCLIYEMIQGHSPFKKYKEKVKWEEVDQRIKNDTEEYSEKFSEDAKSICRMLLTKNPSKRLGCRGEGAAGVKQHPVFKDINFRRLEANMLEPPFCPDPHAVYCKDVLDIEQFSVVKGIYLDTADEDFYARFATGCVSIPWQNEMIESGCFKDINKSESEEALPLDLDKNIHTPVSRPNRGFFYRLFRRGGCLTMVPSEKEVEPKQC
Sequence of 468 kinases including some pathogenic mutants (Homo sapiens, UniProt Q96RR4) (Q96RR4 whole entry, change not shown): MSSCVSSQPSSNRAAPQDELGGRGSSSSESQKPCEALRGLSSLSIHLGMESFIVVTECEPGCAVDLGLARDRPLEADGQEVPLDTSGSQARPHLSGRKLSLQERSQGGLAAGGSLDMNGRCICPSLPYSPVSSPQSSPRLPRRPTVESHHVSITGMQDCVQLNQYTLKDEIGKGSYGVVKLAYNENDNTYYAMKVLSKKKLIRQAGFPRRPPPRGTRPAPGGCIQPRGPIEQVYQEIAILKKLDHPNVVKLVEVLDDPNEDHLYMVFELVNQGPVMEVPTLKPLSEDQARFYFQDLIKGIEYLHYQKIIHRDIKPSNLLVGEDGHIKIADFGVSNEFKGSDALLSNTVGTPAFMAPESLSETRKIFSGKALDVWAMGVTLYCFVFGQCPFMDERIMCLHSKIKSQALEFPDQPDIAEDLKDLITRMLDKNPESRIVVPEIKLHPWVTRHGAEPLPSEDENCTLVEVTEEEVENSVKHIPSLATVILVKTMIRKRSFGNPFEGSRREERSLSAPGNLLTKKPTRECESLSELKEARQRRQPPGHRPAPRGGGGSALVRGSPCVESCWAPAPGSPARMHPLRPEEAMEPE
Sequence of 468 kinases including some pathogenic mutants (Homo sapiens, UniProt P42336, I800L) (P42336 whole entry I800L): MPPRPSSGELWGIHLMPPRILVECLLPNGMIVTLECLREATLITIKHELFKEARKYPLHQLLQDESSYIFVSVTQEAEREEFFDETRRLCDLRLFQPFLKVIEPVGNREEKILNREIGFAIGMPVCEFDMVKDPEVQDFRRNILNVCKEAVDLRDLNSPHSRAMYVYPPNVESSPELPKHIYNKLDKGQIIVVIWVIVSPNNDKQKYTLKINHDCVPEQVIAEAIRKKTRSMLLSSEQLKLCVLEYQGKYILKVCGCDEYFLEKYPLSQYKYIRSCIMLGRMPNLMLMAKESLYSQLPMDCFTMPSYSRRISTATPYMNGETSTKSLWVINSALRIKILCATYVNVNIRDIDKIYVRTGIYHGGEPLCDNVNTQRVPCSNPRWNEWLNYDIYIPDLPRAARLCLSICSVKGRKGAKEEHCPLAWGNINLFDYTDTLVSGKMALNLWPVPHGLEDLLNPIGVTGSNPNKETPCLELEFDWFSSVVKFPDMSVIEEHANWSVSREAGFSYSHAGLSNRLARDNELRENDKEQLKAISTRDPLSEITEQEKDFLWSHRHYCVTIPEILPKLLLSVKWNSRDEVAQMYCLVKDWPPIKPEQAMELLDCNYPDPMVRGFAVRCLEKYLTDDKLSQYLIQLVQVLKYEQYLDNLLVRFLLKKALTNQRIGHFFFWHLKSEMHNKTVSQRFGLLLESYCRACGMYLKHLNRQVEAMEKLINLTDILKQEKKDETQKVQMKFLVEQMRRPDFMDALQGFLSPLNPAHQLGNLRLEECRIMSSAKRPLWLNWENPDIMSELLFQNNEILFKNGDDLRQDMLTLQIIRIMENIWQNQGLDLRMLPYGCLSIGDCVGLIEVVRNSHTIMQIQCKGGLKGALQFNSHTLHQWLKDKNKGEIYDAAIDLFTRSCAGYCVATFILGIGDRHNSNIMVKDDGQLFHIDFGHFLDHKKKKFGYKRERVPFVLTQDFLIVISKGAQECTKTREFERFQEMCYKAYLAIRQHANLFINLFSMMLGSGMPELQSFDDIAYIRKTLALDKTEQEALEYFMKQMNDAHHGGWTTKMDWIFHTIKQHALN
Sequence of 468 kinases including some pathogenic mutants (Homo sapiens, UniProt Q9UF33) (Q9UF33 23-1036, change not shown): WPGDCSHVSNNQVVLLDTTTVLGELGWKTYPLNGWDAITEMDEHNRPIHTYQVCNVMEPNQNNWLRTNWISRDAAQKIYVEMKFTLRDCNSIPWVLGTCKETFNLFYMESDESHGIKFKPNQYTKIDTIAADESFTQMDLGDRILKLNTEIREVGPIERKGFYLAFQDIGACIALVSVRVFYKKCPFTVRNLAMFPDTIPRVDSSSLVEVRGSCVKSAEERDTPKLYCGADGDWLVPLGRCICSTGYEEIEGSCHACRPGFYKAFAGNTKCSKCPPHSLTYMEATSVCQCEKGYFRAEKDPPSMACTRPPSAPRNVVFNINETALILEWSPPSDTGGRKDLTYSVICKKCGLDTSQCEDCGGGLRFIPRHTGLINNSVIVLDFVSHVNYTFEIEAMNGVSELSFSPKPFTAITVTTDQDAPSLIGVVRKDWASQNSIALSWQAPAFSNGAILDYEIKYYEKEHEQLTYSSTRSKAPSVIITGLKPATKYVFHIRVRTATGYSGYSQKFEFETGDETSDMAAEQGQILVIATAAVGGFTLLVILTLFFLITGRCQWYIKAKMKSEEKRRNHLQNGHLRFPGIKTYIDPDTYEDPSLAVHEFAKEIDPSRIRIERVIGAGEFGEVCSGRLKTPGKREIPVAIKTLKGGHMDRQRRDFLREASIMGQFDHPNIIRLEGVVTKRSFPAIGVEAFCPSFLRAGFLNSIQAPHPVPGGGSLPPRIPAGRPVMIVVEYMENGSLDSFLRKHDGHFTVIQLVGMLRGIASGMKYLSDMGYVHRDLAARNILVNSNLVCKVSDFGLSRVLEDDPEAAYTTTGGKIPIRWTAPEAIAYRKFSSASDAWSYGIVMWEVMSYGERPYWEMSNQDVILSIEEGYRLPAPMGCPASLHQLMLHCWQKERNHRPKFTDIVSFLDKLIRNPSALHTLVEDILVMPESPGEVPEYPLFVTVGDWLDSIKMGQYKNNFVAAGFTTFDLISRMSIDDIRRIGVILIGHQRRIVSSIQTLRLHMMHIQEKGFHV

`CN1C(=O)[C@@H](N2CCc3c(nn(Cc4ccccc4)c3C(N)=O)C2=O)COc2cc(Cl)ccc21` [Compound 10, (S)-2-benzyl-6-(8-chloro-5-methyl-4-oxo-2,3,4,5-tetrahydrobenzo[b][1,4]oxazepin-3-yl)-7-oxo-4,5,6,7-tetrahydro-2H-pyrazolo[3,4-c]pyridine-3-carboxamide] was tested, and the remaining activity at 1 µM [1] was 100%, the remaining activity at 0.1 µM [2] was 58% and the remaining activity at 1 µM [3] was 100%. It also gave a remaining activity at 0.1 µM [4] of 100%, a remaining activity at 0.1 µM [5] of 76% and a remaining activity at 0.1 µM [6] of 76%. The remaining activity at 0.1 µM [7] was 74%, the remaining activity at 1 µM [8] was 100% and the remaining activity at 0.1 µM [9] was 77%. For the same molecule, the remaining activity at 1 µM [10] was 100%, the remaining activity at 1 µM [11] was 100% and the remaining activity at 1 µM [12] was 100%. For the same molecule, the remaining activity at 0.1 µM [13] was 72%, the remaining activity at 0.1 µM [14] was 71% and the remaining activity at 1 µM [15] was 100%. For the same molecule, the remaining activity at 0.1 µM [16] was 75%, the remaining activity at 0.1 µM [17] was 87% and the remaining activity at 0.1 µM [18] was 84%. The remaining activity at 1 µM [19] was 100%, the remaining activity at 0.1 µM [20] was 66% and the remaining activity at 1 µM ([21]; RSK4(Kin.Dom.1-N-terminal) (Entrez RPS6KA6), 1000 nM) was 100%. For the same molecule, the remaining activity at 0.1 µM ([21]; RSK4(Kin.Dom.2-C-terminal) (Entrez RPS6KA6), 100 nM) was 90%, the remaining activity at 0.1 µM [22] was 65% and the remaining activity at 0.1 µM [23] was 93%. The remaining activity at 1 µM [24] was 100%, the remaining activity at 0.1 µM [25] was 54% and the remaining activity at 0.1 µM [26] was 82%. The remaining activity at 0.1 µM [27] was 76%, the remaining activity at 0.1 µM [28] was 85% and the remaining activity at 0.1 µM [29] was 80%.
